Assay results reported in patent US9353082B2, “Pharmaceutical compounds” (BIAL—PORTELA & CA, S.A., priority 2008, dated 2016).

How the values were obtained:
FAAH = target: T1, FAAH (Rattus norvegicus, UniProt P97612); test: In vitro FAAH activity in rat brain membranes, 3H-AEA substrate, % of control; assay type: biochemical, Wistar rats; conditions: low value = strong inhibitor
T1 construct: Frozen brains (without cerebellum) from Wistar rats were used; from tissue; host or cells: Wistar rat brain (without cerebellum), washed membrane pellets
T1 sequence (P97612 1-579): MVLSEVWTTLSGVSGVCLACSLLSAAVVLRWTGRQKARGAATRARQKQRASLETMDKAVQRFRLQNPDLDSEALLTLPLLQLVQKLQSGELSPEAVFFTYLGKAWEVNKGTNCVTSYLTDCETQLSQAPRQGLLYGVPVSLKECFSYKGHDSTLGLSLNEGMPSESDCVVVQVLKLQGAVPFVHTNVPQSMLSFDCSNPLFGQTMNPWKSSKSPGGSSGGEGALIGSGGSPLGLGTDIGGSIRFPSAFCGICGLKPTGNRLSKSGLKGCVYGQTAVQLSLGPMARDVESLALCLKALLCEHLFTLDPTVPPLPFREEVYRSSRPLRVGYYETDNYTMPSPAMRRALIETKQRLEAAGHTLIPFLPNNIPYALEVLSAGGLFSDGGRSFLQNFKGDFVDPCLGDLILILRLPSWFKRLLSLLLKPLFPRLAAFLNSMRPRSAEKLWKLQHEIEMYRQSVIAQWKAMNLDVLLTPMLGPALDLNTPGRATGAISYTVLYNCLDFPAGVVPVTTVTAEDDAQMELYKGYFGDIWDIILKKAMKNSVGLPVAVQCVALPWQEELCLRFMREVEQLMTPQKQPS
In short: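 Wistar rat brain membranes (5 μg protein) preincubated 15 min at 37 °C with compound at 10 μM or 0.1 μM (0.1% DMSO), then 2 μM AEA including 3H-AEA with 0.1% BSA, Tris pH 7.6, 10 min. 3H-ethanolamine counted after charcoal stop; % of no-compound control after blank subtraction.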

carboxylesterase (CE) = test: Carboxylesterase (CE) activity in mouse liver microsomes (LVms), p-nitrophenyl acetate; assay type: biochemical; conditions: 10 uM compound, read 10 min after substrate, remaining CE activity
Protocol: FAAH inhibition was determined as described above. Inhibition of monoacylglycerol lipase (MAGL) and carboxylesterase (CE) was performed according to the protocols described below. The controls for both in vitro and in vivo were the reaction mix minus the test compounds. Therefore, a low value in Table 2 below for the test compounds indicates a strong inhibitor.
CE activity measurement is based on the formation of p-nitrophenol from p-nitrophenyl acetate. Briefly, in 96-well plates 8 μg/ml of rat or mouse liver microsomes (LVms) were incubated with 10 μM FAAH inhibitors for 15 min and then the substrate, p-nitrophenyl acetate, was added to a final concentration of 1 mM. The plate was read at 405 nm 10 min after substrate addition for the appearance of p-nitrophenol using a spectrophotometer. The carboxylesterase activity in microsome extracts without inhibitor added were set at 100% as control and the remaining CE activities after incubation with inhibitors were calculated relative to the control.

Structure (SMILES): COc1cccc(-c2cn(C(=O)N3CCCc4ccccc43)cn2)c1 [Compound 39, (3,4-dihydroquinolin-1(2H)-yl)(4-(3-methoxyphenyl)-1H-imidazol-1-yl)methanone]
- FAAH 10 uM (FAAH; 10 uM compound, rat brain membranes, 100 = no measurable inhibition): 16 % of control
- In Vitro FAAH activity, 10 uM (FAAH; 10 uM test compound): 16 % of control
- CE Mou LVms 10 uM 10 min (carboxylesterase (CE)): 84.3 % of control
